Values joined by “and” are separate entries in the source; they are usually repeats but may differ in a detail not shown here. Equal entries are not always repeated.
Test: xn = mol fraction of the nth substance listed

CCCCNCCCC + ClC(Cl)Cl
298.15 K, 101.3 kPa
Conditions | viscosity [mPa·s]
x1 = 0.102 | 0.639
x1 = 0.199 | 0.717
x1 = 0.3088 | 0.803
x1 = 0.3714 | 0.845
x1 = 0.4997 | 0.904
x1 = 0.6082 | 0.925
x1 = 0.698 | 0.907
x1 = 0.7719 | 0.89
x1 = 0.9007 | 0.852

CCOC(=O)C(=O)OCC + ClC(Cl)Cl
303.15 K, 101 kPa
Conditions | viscosity [mPa·s]
x1 = 0.0624 | 0.606
x1 = 0.1302 | 0.712
x1 = 0.2043 | 0.825
x1 = 0.2854 | 0.942
x1 = 0.3747 | 1.051
x1 = 0.473 | 1.157
x1 = 0.5831 | 1.28
x1 = 0.7057 | 1.399
x1 = 0.8436 | 1.539

CCCCNCCCC + ClCCl
298.15 K, 101.3 kPa
Conditions | viscosity [mPa·s]
x1 = 0.0995 | 0.494
x1 = 0.2125 | 0.55
x1 = 0.299 | 0.59
x1 = 0.3913 | 0.633
x1 = 0.4338 | 0.655
x1 = 0.6097 | 0.719
x1 = 0.6782 | 0.74
x1 = 0.807 | 0.768
x1 = 0.8865 | 0.787

C[N+](C)(C)C[C@H](O)CC(=O)[O-] + NC(N)=O
Conditions | viscosity [mPa·s]
298.15 K, 101.33 kPa, x2 = 0.7 | 553

CCCC(=O)O + NC=O
viscosity [mPa·s], 101 kPa
Conditions | x1 = 0.1043 | x1 = 0.2044 | x1 = 0.3013 | x1 = 0.4031 | x1 = 0.5027 | x1 = 0.5996 | x1 = 0.7011 | x1 = 0.799 | x1 = 0.857 | x1 = 0.951
298.15 K | 2.333 | 3.534 | 5.24 | 7.11 | 8.41 | 9.33 | 9.17 | 8.51 | 7.33 | 4.986
313.15 K | 1.734 | 2.563 | 3.461 | 4.456 | 5.37 | 5.8 | 5.8 | 5.54 | 4.779 | 3.252

CCN(C=O)CC + NC=O
viscosity [mPa·s]
Conditions | 298.15 K | 308.15 K | 323.15 K
101 kPa, x1 = 0.1 | 3.55 | 2.91 | 2.27
101 kPa, x1 = 0.2 | 3.62 | 2.97 | 2.29
101 kPa, x1 = 0.3 | 3.51 | 2.86 | 2.15
101 kPa, x1 = 0.4 | 3.25 | 2.62 | 1.91
101 kPa, x1 = 0.5 | 2.93 | 2.34 | 1.64
101 kPa, x1 = 0.6 | 2.52 | 2.01 | 1.43
101 kPa, x1 = 0.7 | 2.24 | 1.71 | 1.22
101 kPa, x1 = 0.85 | 1.61 | 1.34 | 1.01
101.33 kPa, x2 = 0.07537 | 1.391 | – | 0.937
101.33 kPa, x2 = 0.1513 | 1.585 | – | 1.034
101.33 kPa, x2 = 0.2164 | 1.736 | – | 1.103
101.33 kPa, x2 = 0.2957 | 2.021 | – | 1.26
101.33 kPa, x2 = 0.3723 | 2.312 | – | 1.37
101.33 kPa, x2 = 0.4452 | 2.614 | – | 1.503
101.33 kPa, x2 = 0.4964 | 2.776 | – | 1.603
101.33 kPa, x2 = 0.5665 | 3.138 | – | 1.757
101.33 kPa, x2 = 0.6362 | 3.333 | – | 1.859
101.33 kPa, x2 = 0.7013 | 3.547 | – | 1.942
101.33 kPa, x2 = 0.7404 | 3.678 | – | 1.99
101.33 kPa, x2 = 0.785 | 3.722 | – | 2.046
101.33 kPa, x2 = 0.8471 | 3.663 | – | 2.045
101.33 kPa, x2 = 0.93 | 3.516 | – | 1.978

COCCO + NCCO
viscosity [mPa·s], 101.3 kPa
Conditions | x2 = 0.122 | x2 = 0.348 | x2 = 0.916
298.15 K | 2.065 | 3.765 | –
308.15 K | – | – | 10.55

C#CC(C)(C)O + O
viscosity [mPa·s], 101.32 kPa
Conditions | x1 = 0.1001 | x1 = 0.2003 | x1 = 0.3009 | x1 = 0.4001 | x1 = 0.5004 | x1 = 0.602 | x1 = 0.7044 | x1 = 0.8017 | x1 = 0.9005
308.15 K | 1.612 | 2.02 | 2.2 | 2.289 | 2.308 | 2.297 | 2.254 | 2.21 | 2.152
313.15 K | 1.403 | 1.78 | 1.92 | 1.973 | 1.986 | 1.968 | 1.928 | 1.898 | 1.838
318.15 K | 1.24 | 1.56 | 1.67 | 1.7 | 1.719 | 1.712 | 1.669 | 1.643 | 1.582
323.15 K | 1.105 | 1.369 | 1.45 | 1.483 | 1.498 | 1.486 | 1.449 | 1.424 | 1.376

C1CCNCC1 + O
viscosity [mPa·s], 101 kPa
Conditions | x1 = 0.05 | x1 = 0.1 | x1 = 0.2 | x1 = 0.3 | x1 = 0.35 | x1 = 0.4 | x1 = 0.6 | x1 = 0.8
298.15 K | 1.9 | 3.06 | 4.76 | 5.4 | 5.42 | 5.13 | 3.38 | 2.05
323.15 K | 0.887 | 1.26 | 1.77 | 1.94 | 1.94 | 1.86 | 1.38 | 0.993

C1CNCCN1 + O
Conditions | viscosity
293.15 K, 100 kPa, x1 = 0.02273 | 1.608 mPa·s
298.15 K, 101 kPa, x1 = 0.0292 | 1.877 mPa·s
303.15 K, 101 kPa, x1 = 0.00369 | 0.86 mPa·s
303.15 K, 101 kPa, x1 = 0.005 | 0.84 mPa·s
303.15 K, 101 kPa, x1 = 0.01 | 0.93 mPa·s
303.15 K, 101 kPa, x1 = 0.0113 | 0.97 mPa·s
303.15 K, 101 kPa, x1 = 0.02 | 1.13 mPa·s
303.15 K, 101 kPa, x1 = 0.02358 | 1.28 mPa·s
303.15 K, 101 kPa, x1 = 0.025 | 1.28 mPa·s
303.15 K, 101 kPa, x1 = 0.03 | 1.41 mPa·s
303.15 K, 101 kPa, x1 = 0.035 | 1.57 mPa·s
303.15 K, 101 kPa, x1 = 0.04 | 1.76 mPa·s
303.15 K, 101 kPa, x1 = 0.045 | 1.91 mPa·s
313.15 K, 100 kPa, x1 = 0.02273 | 0.9677 mPa·s and 0.988 mPa·s
313.15 K, 101 kPa, x1 = 0.005 | 0.67 mPa·s
313.15 K, 101 kPa, x1 = 0.01 | 0.74 mPa·s
313.15 K, 101 kPa, x1 = 0.0113 | 0.76 mPa·s
313.15 K, 101 kPa, x1 = 0.015 | 0.81 mPa·s
313.15 K, 101 kPa, x1 = 0.02 | 0.89 mPa·s
313.15 K, 101 kPa, x1 = 0.02358 | 1.02 mPa·s
313.15 K, 101 kPa, x1 = 0.025 | 0.99 mPa·s
313.15 K, 101 kPa, x1 = 0.0292 | 1.307 mPa·s
313.15 K, 101 kPa, x1 = 0.03 | 1.08 mPa·s
313.15 K, 101 kPa, x1 = 0.04 | 1.33 mPa·s
313.15 K, 101 kPa, x1 = 0.045 | 1.43 mPa·s
318.15 K, 101 kPa, x1 = 0.00369 | 0.61 mPa·s
318.15 K, 101 kPa, x1 = 0.0113 | 0.69 mPa·s
318.15 K, 101 kPa, x1 = 0.02358 | 0.92 mPa·s
323.15 K, 101 kPa, x1 = 0.005 | 0.51 mPa·s
323.15 K, 101 kPa, x1 = 0.01 | 0.59 mPa·s
323.15 K, 101 kPa, x1 = 0.0113 | 0.62 mPa·s
323.15 K, 101 kPa, x1 = 0.02 | 0.71 mPa·s
323.15 K, 101 kPa, x1 = 0.02358 | 0.81 mPa·s
323.15 K, 101 kPa, x1 = 0.025 | 0.8 mPa·s
323.15 K, 101 kPa, x1 = 0.03 | 0.86 mPa·s
323.15 K, 101 kPa, x1 = 0.035 | 0.95 mPa·s
323.15 K, 101 kPa, x1 = 0.04 | 1.04 mPa·s
323.15 K, 101 kPa, x1 = 0.045 | 1.11 mPa·s

CCC(=O)[O-].CC[N+]1(C)CCOCC1 + O
viscosity [mPa·s], 100 kPa
Conditions | x1 = 0.0672 | x1 = 0.1305 | x1 = 0.2131 | x1 = 0.2851 | x1 = 0.4005 | x1 = 0.5397 | x1 = 0.6231 | x1 = 0.7436
298.15 K | 4.98 | 16.4 | 50.3 | 98.7 | 318 | 1237 | 2366 | –
303.15 K | 4.23 | 13.2 | 38.8 | 74.6 | 223 | 796 | 1660 | –
308.15 K | 3.64 | 11.2 | 30.6 | 57.2 | 160 | 530 | 1149 | –
313.15 K | 3.16 | 9.32 | 24.5 | 44.6 | 119 | 366 | 786 | 2582
318.15 K | 2.76 | 7.58 | 20 | 35.4 | 89.3 | 258 | 543 | 1792
323.15 K | 2.44 | 6.46 | 16.5 | 28.7 | 69.1 | 187 | 372 | 1137

Reference: the CheMixHub viscosity set
